The results in this text go back to patent US10166218B2, “3-(1H-indol-2-yl)-1H-pyrazolo[3,4-C]pyridines and therapeutic uses thereof” (Samumed, LLC, priority 2015, dated 2019).

What all share (format): cell-based
For one assay, the system named is IL-6 (THP-1 cells). Nature of the assay: Inhibition of IL-6 in LPS-stimulated THP-1 human monocyte cells (HTRF). To be noted: inhibition of IL-6 in LPS-stimulated THP-1 cells, HTRF, 10-point dose-response starting from 10 μM. An outline of the steps:
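Readout is the 665/620 nm HTRF ratio for secreted IL-6, normalized to DMSO wells, with EC50 from a variable-slope four-parameter fit, or % inhibition at 10 μM when above 10 μM. Cells (1% FBS, 24 h beforehand) got compound for 2 h, then LPS 500 ng/mL for 22 h at 37° C; top dose 10 μM, 0.1% DMSO.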

Assay [1] relates to Wnt activity (Sp5-Luc reporter, TCF/LEF binding sites) in SW480 colon carcinoma cells. Nature of the assay: Screening assay for Wnt activity: Sp5-Luc reporter gene assay in stably transduced SW480 cells. To be noted: Homo sapiens, overnight incubation. The method in brief: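 First, hygromycin-selected SW480 Sp5-Luc reporter cells are seeded in medium with 1% fetal bovine serum and exposed overnight to compound (up to 10 μM, 0.1% DMSO). Next, luciferase signal is read by luminescence. Finally, EC50 is fitted, or percent inhibition at 10 μM is reported above 10 μM.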

A further assay relates to SW480 colon cancer cells. Description: Cell viability assay (CellTiter-Blue) in SW480 colon cancer cells. To be noted: Homo sapiens, 96 h, four days, CellTiter-Blue. The method in brief: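 Resazurin reduction (Ex 560/Em 590 nm, ~3 h reagent incubation) served as the viability read-out after SW480 cells were treated for four days at 37 °C. Doses ran from 10 μM down to 0.0045 μM in eight 1:3 steps. Curves fitted non-linearly for EC50, else % inhibition at 10 μM reported.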

The test system of assay [2] is primary human fibroblasts derived from IPF patients (LL29 cells) treated with TGF-β1; α-smooth muscle actin (αSMA). Description: Inhibition of the fibrotic process: αSMA staining in TGF-β1 treated primary human fibroblasts from IPF patients (LL29 cells). To be noted: Fibroblast, 96 h, TGF-β1 20 ng/mL, 4 days, % cells positive for αSMA. An outline of the steps: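 EC50 values come from non-linear fits of the αSMA-positive percentage among SYTOX-excluded live cells, normalized to TGF-β1 plus DMSO controls, or appear as % inhibition at 10 μM when above 10 μM. Fibrosis was induced in IPF-derived LL29 fibroblasts by 20 ng/mL TGF-β1 over 4 days, with 1:2 compound dilutions from 10 μM.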

Structures are written as SMILES.

Take `CCC(=O)Nc1cncc(-c2cc3c(-c4cc5c(-c6cccs6)cccc5[nH]4)n[nH]c3cn2)c1` [Compound 337, N-(5-(3-(4-(Thiophen-2-yl)-1H-indol-2-yl)-1H-pyrazolo[3,4-c]pyridin-5-yl)pyridin-3-yl)propionamide]: the EC50 with IL-6 (THP-1 cells) stood at 7120 nM; in assay [1], 911 nM; in the assay on SW480 colon cancer cells, 3420 nM; in assay [2] it was 387 nM.

As for `CN(C)c1cncc(-c2cc3c(-c4cc5c(-c6cccs6)cccc5[nH]4)n[nH]c3cn2)c1` [Compound 343, N,N-Dimethyl-5-(3-(4-(thiophen-2-yl)-1H-indol-2-yl)-1H-pyrazolo[3,4-c]pyridin-5-yl)pyridin-3-amine], the EC50 was determined as 7750 nM in the assay with IL-6 (THP-1 cells), 1130 nM in assay [1], 696 nM with SW480 colon cancer cells and 134 nM in assay [2].

Turning to `CCCC(=O)Nc1cncc(-c2cc3c(-c4cc5c(-c6cccs6)cccc5[nH]4)n[nH]c3cn2)c1` [Compound 353, N-(5-(3-(4-(Thiophen-2-yl)-1H-indol-2-yl)-1H-pyrazolo[3,4-c]pyridin-5-yl)pyridin-3-yl)butyramide], the EC50 was 1890 nM in the assay on IL-6 (THP-1 cells), 4910 nM in assay [1], 4010 nM in the assay with SW480 colon cancer cells and 56 nM in assay [2].

Regarding `c1ccc(CNCc2cncc(-c3cc4c(-c5cc6c(-c7cccs7)cccc6[nH]5)n[nH]c4cn3)c2)cc1` [Compound 360, N-Benzyl-1-(5-(3-(4-(thiophen-2-yl)-1H-indol-2-yl)-1H-pyrazolo[3,4-c]pyridin-5-yl)pyridin-3-yl)methanamine], the EC50 in the assay with IL-6 (THP-1 cells) is 1430 nM; in assay [1], 1780 nM; with SW480 colon cancer cells, 3470 nM; in assay [2] it was 373 nM.

On to `CN(C)CCNc1cc(F)cc(-c2cccc3[nH]c(-c4n[nH]c5cnc(-c6cncc(NC(=O)Cc7ccccc7)c6)cc45)cc23)c1` [Compound 458, N-(5-(3-(4-(3-((2-(Dimethylamino)ethyl)amino)-5-fluorophenyl)-1H-indol-2-yl)-1H-pyrazolo[3,4-c]pyridin-5-yl)pyridin-3-yl)-2-phenylacetamide], for which the EC50 worked out at 3300 nM in the assay with IL-6 (THP-1 cells), 3590 nM in assay [1], 4550 nM in the assay on SW480 colon cancer cells and 2840 nM in assay [2].

As for `CN(C)CCNc1cc(F)cc(-c2cccc3[nH]c(-c4n[nH]c5cnc(-c6cncc(NC(=O)C7CC7)c6)cc45)cc23)c1` [Compound 468, N-(5-(3-(4-(3-((2-(Dimethylamino)ethyl)amino)-5-fluorophenyl)-1H-indol-2-yl)-1H-pyrazolo[3,4-c]pyridin-5-yl)pyridin-3-yl)cyclopropanecarboxamide], the EC50 in the assay with IL-6 (THP-1 cells) turned out to be 866 nM; in assay [1], 1310 nM; with SW480 colon cancer cells it was 1980 nM; in assay [2] it was 3510 nM.

On to `CC(C)Nc1cncc(-c2cc3c(-c4cc5c(-c6cc(F)cc(CNS(C)(=O)=O)c6)cccc5[nH]4)n[nH]c3cn2)c1` [Compound 488, N-(3-Fluoro-5-(2-(5-(5-(isopropylamino)pyridin-3-yl)-1H-pyrazolo[3,4-c]pyridin-3-yl)-1H-indol-4-yl)benzyl)methanesulfonamide], for which the EC50 with IL-6 (THP-1 cells) came out at 526 nM; in assay [1], 157 nM; in the assay with SW480 colon cancer cells, 688 nM; in assay [2], 182 nM.

Turning to `CS(=O)(=O)NCc1cc(F)cc(-c2cccc3[nH]c(-c4n[nH]c5cnc(-c6cncc(NC(=O)C7CCCCC7)c6)cc45)cc23)c1` [Compound 499, N-(5-(3-(4-(3-Fluoro-5-(methylsulfonamidomethyl)phenyl)-1H-indol-2-yl)-1H-pyrazolo[3,4-c]pyridin-5-yl)pyridin-3-yl)cyclohexanecarboxamide], the EC50 stood at 1780 nM in the assay on IL-6 (THP-1 cells), 1760 nM in assay [1], 4540 nM in the assay on SW480 colon cancer cells and 4790 nM in assay [2].

As for `CS(=O)(=O)NCc1cc(F)cc(-c2cccc3[nH]c(-c4n[nH]c5cnc(-c6cncc(CNCC7CCCC7)c6)cc45)cc23)c1` [Compound 501, N-(3-(2-(5-(5-(((Cyclopentylmethyl)amino)methyl)pyridin-3-yl)-1H-pyrazolo[3,4-c]pyridin-3-yl)-1H-indol-4-yl)-5-fluorobenzyl)methanesulfonamide], the EC50 with IL-6 (THP-1 cells) is 1030 nM; in assay [1], 1340 nM; with SW480 colon cancer cells, 2250 nM; in assay [2] it was 463 nM.

As for `CS(=O)(=O)NCc1cc(F)cc(-c2cccc3[nH]c(-c4n[nH]c5cnc(-c6cncc(CN7CCC(F)(F)C7)c6)cc45)cc23)c1` [Compound 502, N-(3-(2-(5-(5-((3,3-Difluoropyrrolidin-1-yl)methyl)pyridin-3-yl)-1H-pyrazolo[3,4-c]pyridin-3-yl)-1H-indol-4-yl)-5-fluorobenzyl)methanesulfonamide], the EC50 worked out at 481 nM in the assay on IL-6 (THP-1 cells), 253 nM in assay [1], 882 nM with SW480 colon cancer cells and 28 nM in assay [2].

For the compound `Fc1cccc(-c2cccc3[nH]c(-c4n[nH]c5cnc(-c6cncc(OCc7ccccc7)c6)cc45)cc23)c1` [Compound 546, 5-(5-(Benzyloxy)pyridin-3-yl)-3-(4-(3-fluorophenyl)-1H-indol-2-yl)-1H-pyrazolo[3,4-c]pyridine], the EC50 with IL-6 (THP-1 cells) was determined as 3990 nM; in assay [1], 421 nM; with SW480 colon cancer cells it was 365 nM; in assay [2] it was 234 nM.

On to `Cc1ncc(-c2cc3c(-c4cc5ccccc5[nH]4)n[nH]c3cn2)n1C` [Compound 681, 5-(1,2-Dimethyl-1H-imidazol-5-yl)-3-(1H-indol-2-yl)-1H-pyrazolo[3,4-c]pyridine], for which the EC50 in the assay on IL-6 (THP-1 cells) was 954 nM; in assay [1] it was 754 nM; with SW480 colon cancer cells, 1520 nM; in assay [2] it was 292 nM.

On to `c1cnc2cc(-c3n[nH]c4cnc(-c5cncc(OC6CCCCC6)c5)cc34)[nH]c2c1` [Compound 1025, 5-(5-(Cyclohexyloxy)pyridin-3-yl)-3-(1H-pyrrolo[3,2-b]pyridin-2-yl)-1H-pyrazolo[3,4-c]pyridine], for which the EC50 with IL-6 (THP-1 cells) was found to be 353 nM; in assay [1], 171 nM; with SW480 colon cancer cells, 1430 nM; in assay [2] it was 584 nM.
